Test results as given in patent US20170304195A1, “PHARMACEUTICAL FORMULATIONS FOR THE ORAL DELIVERY OF PEPTIDE OR PROTEIN DRUGS” (Cyprumed GmbH, priority 2014, published 2017).
Where two headings read alike, the source gives them in different places.

Tests used:
[1] = rat, in vivo
Method: (§1) Blood was taken from tail vessels at the time points 0, 10, 20, 40, 60, 90, 120 and 180 min after dosing.

in vivo [2] = settings: Sprague Dawley, rat, sc, 0.1 mg/kg
Method: as §1

[3] = pH of dissolved solid powder mixtures (Example 17); format: physicochemical
in vivo [4] = settings: Sprague Dawley, rat, sc
Method: (§2) Teriparatide (PTH1-34) was dosed subcutaneously in volume of 1 ml/kg (final concentration 0.024 mg/ml teriparatide) to anaesthetized rats. […] Blood was taken from tail vessels at the time points 0, 10, 20, 40, 60, 90, 120 and 180 min after dosing. The teriparatide plasma concentrations were determined using commercial pTH (1-34) human ELISA kit (Biovendor, EU, cat. number RS-1163.0001).

[5] = rat, in vivo; remark: listed apart in the source
Method: as §2

[6] = study comparing aprotinin with aminocaproic acid; cited from earlier work

Compound `CCNC(=O)[C@@H]1CCCN1C(=O)[C@H](CCCNC(=N)N)NC(=O)[C@H](CC(C)C)NC(=O)[C@@H](CC(C)C)NC(=O)[C@H](Cc1ccc(O)cc1)NC(=O)[C@H](CO)NC(=O)[C@H](Cc1c[nH]c2ccccc12)NC(=O)[C@H](Cc1c[nH]cn1)NC(=O)[C@@H]1CCC(=O)N1` [Leuprolide] has an F [1] of 100 ± 19.5%, an AUC(0-t) (in vivo [2]) of 130 ng·h/mL and a Cmax (in vivo [2]) of 78.9 ± 14.7 ng/mL. The Tmax (in vivo [2]) was 20 to 40 min.

In the case of `CC[C@H](C)[C@H](NC(=O)[C@H](CCC(=O)O)NC(=O)[C@H](CO)NC(=O)[C@@H](NC(=O)[C@@H](N)CO)C(C)C)C(=O)N[C@@H](CCC(N)=O)C(=O)N[C@@H](CC(C)C)C(=O)N[C@@H](CCSC)C(=O)N[C@@H](Cc1cnc[nH]1)C(=O)N[C@@H](CC(N)=O)C(=O)N[C@@H](CC(C)C)C(=O)NCC(=O)N[C@@H](CCCCN)C(=O)N[C@@H](Cc1cnc[nH]1)C(=O)N[C@@H](CC(C)C)C(=O)N[C@@H](CC(N)=O)C(=O)N[C@@H](CO)C(=O)N[C@@H](CCSC)C(=O)N[C@@H](CCC(=O)O)C(=O)N[C@@H](CCCN=C(N)N)C(=O)N[C@H](C(=O)N[C@@H](CCC(=O)O)C(=O)N[C@@H](Cc1c[nH]c2ccccc12)C(=O)N[C@@H](CC(C)C)C(=O)N[C@@H](CCCN=C(N)N)C(=O)N[C@@H](CCCCN)C(=O)N[C@@H](CCCCN)C(=O)N[C@@H](CC(C)C)C(=O)N[C@@H](CCC(N)=O)C(=O)N[C@@H](CC(=O)O)C(=O)N[C@H](C(=O)N[C@@H](Cc1cnc[nH]1)C(=O)N[C@@H](CC(N)=O)C(=O)N[C@@H](Cc1ccccc1)C(=O)O)C(C)C)C(C)C` [PTH(1-34), Teriparatide], the “Dissolution pH in 5 ml Aqua purificata” value ([3]; CuSO4 10 mg, lauroyl carnitine 10 mg, MCC 50 mg, no buffer) is reported as 3.6, the “Dissolution pH in 5 ml Aqua purificata” value ([3]; CuSO4 10 mg, lauroyl carnitine 10 mg, gelatin capsule 50 mg, no buffer) is reported as 4.4 and the “Dissolution pH in 5 ml Aqua purificata” value ([3]; CuSO4 10 mg, lauroyl carnitine 10 mg, lactose 50 mg, 10 mg TRIS) is reported as 6.5. The “Dissolution pH in 5 ml Aqua purificata” value ([3]; CuSO4 10 mg, lauroyl carnitine 10 mg, lactose 50 mg, buffer cell empty) was 3.2, the “Dissolution pH in 5 ml Aqua purificata” value ([3]; CuSO4 10 mg, sucrose laurate 10 mg, lactose 50 mg, no buffer) was 5.0 and the “Dissolution pH in 5 ml Aqua purificata” value ([3]; ZnCl2 10 mg, lauroyl carnitine 10 mg, MCC 50 mg, 5 mg TRIS) was 6.3. For the same compound, the “Dissolution pH in 5 ml Aqua purificata” value ([3]; ZnCl2 10 mg, lauroyl carnitine 10 mg, MCC 50 mg, no buffer) was 3.5, the “Dissolution pH in 5 ml Aqua purificata” value ([3]; ZnCl2 10 mg, lauroyl carnitine 10 mg, gelatin capsule 50 mg, 10 mg TRIS) was 6.8 and the “Dissolution pH in 5 ml Aqua purificata” value ([3]; ZnCl2 10 mg, lauroyl carnitine 10 mg, gelatin capsule 50 mg, no buffer) was 4.3. For the same compound, the “Dissolution pH in 5 ml Aqua purificata” value ([3]; ZnCl2 10 mg, lauroyl carnitine 10 mg, lactose 50 mg, 10 mg TRIS) was 7.1, the “Dissolution pH in 5 ml Aqua purificata” value ([3]; ZnCl2 10 mg, lauroyl carnitine 10 mg, lactose 50 mg, buffer cell empty) was 2.9 and the “Dissolution pH in 5 ml Aqua purificata” value ([3]; ZnSO4 10 mg, lauroyl carnitine 10 mg, lactose 50 mg, 10 mg TRIS) was 7.5. The “Dissolution pH in 5 ml Aqua purificata” value ([3]; ZnSO4 10 mg, lauroyl carnitine 10 mg, lactose 50 mg, no buffer) was 3.1, the “Dissolution pH in 5 ml Aqua purificata” value ([3]; ZnSO4 10 mg, sucrose laurate 10 mg, lactose 50 mg, no buffer) was 6.5 and the Tmax (in vivo [4]) was 10 min. The half-life (in vivo [4]) was 44 ± 8 min, the F [5] was 100 ± 23% and the “plasma half-life of PTH(1-34) compared to s.c. administration, in words” value [5] was “increased plasma half-life”.

In the case of Aprotinin, the increase of mortality [6] is listed as 64%.
